The subject of the experiment is Corynespora cassiicola. In words: Liquid culture growth inhibition of Corynespora cassiicola (PDB, 96-well microtiter plate, photometric). It counts as cell-based. As to conditions: 24 C, 3-4 days, photometric at 620 nm, compared to untreated control. The procedure: Conidia of the fungus from cryogenic storage were directly mixed into nutrient broth (PDB potato dextrose broth). A DMSO solution of the test compounds was placed into a microtiter plate (96-well format) and the nutrient broth containing the fungal spores was added to it. The test plates were incubated at 24 C and the inhibition of growth (% control of Corynespora cassiicola) was determined photometrically after 3-4 days at 620 nm. The activity of a compound is derived by comparing the inhibition of growth in the treated test solution to the growth in the untreated check. The concentration of the compounds was 0.74, 0.25, and 0.082 ppm.

In the case of `CC1(C)N=C(c2cnc3ccccc3c2)c2ccccc2C1(F)F`, the “control of Corynespora cassiicola (inhibition of growth)” value (“control … (inhibition of growth)” below) (0.082 ppm) is given as “at least 20%”, the “control … (inhibition of growth)” value (0.25 ppm) is reported as “at least 50%” and the “control … (inhibition of growth)” value (0.74 ppm) is “at least 70%”.
